Data reported in patent publication US20210093645A1, “COMBINATION ANTI CANCER THERAPY WITH AN IAP ANTAGONIST AND AN ANTI PD-1 MOLECULE” (Debiopharm International S.A., priority 2017, published 2021).
Entries after “also recorded” stand apart in the source; their conditions may differ.

Key:
cIAP1 = molecular target: T1, cIAP1 (Homo sapiens, UniProt Q13490); test: immunohistochemistry of tumor biopsies before and after Debio 1143, cIAP1 staining; format: in vivo; conditions: head & neck cancer patients, n=12; 200 mg Debio 1143 p.o. daily day 1 to 15; biopsy after vs before treatment
T1 construct: from tissue; host or cells: tumor biopsies of patients with squamous cell carcinoma of the head and neck
T1 sequence (Q13490 whole entry): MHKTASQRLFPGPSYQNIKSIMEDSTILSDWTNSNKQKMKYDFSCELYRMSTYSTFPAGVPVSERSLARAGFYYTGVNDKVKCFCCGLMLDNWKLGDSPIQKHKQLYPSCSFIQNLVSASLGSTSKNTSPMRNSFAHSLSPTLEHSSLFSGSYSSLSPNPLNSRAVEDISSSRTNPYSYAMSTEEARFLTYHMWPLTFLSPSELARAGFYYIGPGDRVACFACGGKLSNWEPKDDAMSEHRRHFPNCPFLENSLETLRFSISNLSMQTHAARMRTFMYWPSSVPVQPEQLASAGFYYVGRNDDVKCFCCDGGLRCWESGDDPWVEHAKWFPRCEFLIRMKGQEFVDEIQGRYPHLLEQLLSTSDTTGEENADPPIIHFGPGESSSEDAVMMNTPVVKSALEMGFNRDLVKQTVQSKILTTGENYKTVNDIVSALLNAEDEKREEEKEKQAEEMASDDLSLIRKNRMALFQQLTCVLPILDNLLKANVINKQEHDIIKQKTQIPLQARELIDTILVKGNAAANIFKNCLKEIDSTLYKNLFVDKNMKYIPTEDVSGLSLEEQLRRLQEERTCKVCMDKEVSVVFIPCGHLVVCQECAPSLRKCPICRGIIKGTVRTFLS
Description: (§1) The study enrolled adult patients with newly diagnosed histologically proven squamous cell carcinoma of the oral cavity, oropharynx, hypopharynx or larynx. During a screening period of two weeks (days −14 to −1), a tumor biopsy was taken and analyzed. Treatment was from day 1 to day 15 (+/−2 days) and consisted (in one arm) of daily administration p.o. of 200 mg Debio 1143. At the end of this treatment period, a second tumor biopsy was taken and analyzed, and the patients underwent surgery. Biopsies were analyzed by immunohistochemical methods. Staining for cIAP1 was carried out using a Dako autostainer automaton (Agilent). The EPR4673 […] mAb (Abcam) was utilized at a 1/100 dilution, and tissue slides were exposed to the antibody for 20 min. Pretreatment of the slides was with EnVision FLEX Target Retrieval Solution, Low pH; the EnVision FLEX system (chromogen: DAB) was employed for visualization of the signal. EnVision Flex system and reagent were from Agilent. The same protocol was applied for PD-L1 staining. The E1 L3N rabbit mAb (Cell Signaling Technology) was used at a 1/500 dilution.

CD4+ T-lymphocytes = test: immunohistochemistry of tumor biopsies before and after Debio 1143, CD4 staining; format: in vivo, human; conditions: head & neck cancer patients, n=12; 200 mg Debio 1143 p.o. daily day 1 to 15; biopsy after vs before treatment
Description: (§2) The study enrolled adult patients with newly diagnosed histologically proven squamous cell carcinoma of the oral cavity, oropharynx, hypopharynx or larynx. During a screening period of two weeks (days −14 to −1), a tumor biopsy was taken and analyzed. Treatment was from day 1 to day 15 (+/−2 days) and consisted (in one arm) of daily administration p.o. of 200 mg Debio 1143. At the end of this treatment period, a second tumor biopsy was taken and analyzed, and the patients underwent surgery. T cells were identified using CD3 rabbit mAb 2GV6 from Ventana Roche (provided as a ready-to-use solution). Slides were processed on a Ventana Benchmark Ultra automaton. Exposure to antibody was 20 min. Pretreatment of the slides (64 min) was with cell conditioning solution CC1 (Ventana); the Optiview system (Ventana) (chromogen: DAB) was employed for visualization of the signal. Staining of CD8 and CD4 T cells was by the same protocol. The CD8 antibody was the SP57 rabbit mAb, and the CD4 antibody was the SP35 rabbit mAb. Both antibodies were from Ventana Roche and were provided as ready-to-use solutions. The antibody selected for PD-1 detection was the NAT105 mouse mAb that was also provided as a ready-to-use solution (Cell Marque). The protocol for PD-1 detection was the same as that used for CD3 staining, except that antibody exposure and pretreatment times were each 16 min.

CD8+ T-lymphocytes = test: immunohistochemistry of tumor biopsies before and after Debio 1143, CD8 staining; format: in vivo, human; conditions: head & neck cancer patients, n=12; 200 mg Debio 1143 p.o. daily day 1 to 15; biopsy after vs before treatment
Description: as §2

PD-1 = test: immunohistochemistry of tumor biopsies before and after Debio 1143, PD-1 staining; format: in vivo, human; conditions: head & neck cancer patients, n=12; 200 mg Debio 1143 p.o. daily day 1 to 15; biopsy after vs before treatment
Description: as §2

PD-L1 = test: immunohistochemistry of tumor biopsies before and after Debio 1143, PD-L1 staining; format: in vivo, human; conditions: head & neck cancer patients, n=12; 200 mg Debio 1143 p.o. daily day 1 to 15; biopsy after vs before treatment
Description: as §1

[1] = test system: syngeneic colon carcinoma cell line MC38; test: MC38 syngeneic tumor model, Debio 1143 pretreatment then anti-PD-L1 (Example 2); format: in vivo, C57BL/6J mice
Description: Five groups (n=8) of adult female C57BL/6J mice (obtained from Shanghai Lingchang Bio-Technology Co.) were inoculated in the right lower flank with 1×10^6 cells of the syngeneic colon carcinoma cell line MC38. When average tumor size reached about 50 mm^3 (day 1), animals received either pretreatment consisting of p.o. SMAC mimetic Debio 1143 (Debiopharm) at a dose of 100 mg/kg or vehicle as indicated in Table 1. The dosing was repeated on each day for 7 days (day 1-7). On the subsequent day (day 8), animals of a vehicle-treated group and a Debio 1143-pretreated group were given i.p. 10 mg/kg of control antibody rlgG2b (Clone: LTF-2, BioXcell). Control antibody was administered twice weekly until the end of the study. Another set of two groups (vehicle- and Debio 1143-pretreated animals) received i.p. 10 mg/kg of anti-PD-L1 antibody (Mouse surrogate antibody, anti-mouse PD-L1, Clone: 10F.9G2, BioXcell). Administration was repeated twice weekly as for the control antibody. A final group of Debio 1143-pretreated animals received both anti-PD-L1 antibody as well as was continued on daily Debio 1143. Tumor volumes and body weights were assessed trice weekly. Tumor size was measured in two dimensions using a caliper, and the volume was expressed in mm^3 using the formula: V=0.5 a×b^2 where a and b are the long and short diameters of the tumor, respectively.

[2] = test system: syngeneic colon carcinoma cell line CT26; test: CT26 syngeneic tumor model, Debio 1143 pretreatment then anti-PD-1 (Example 4); format: in vivo, BALB/c mice
Description: Five groups (n=8) of adult female BALB/c mice (obtained from Shanghai Lingchang Bio-Technology Co.) were inoculated in the right lower flank with 0.5×10^6 cells of the syngeneic colon carcinoma cell line CT26. When average tumor size reached about 50 mm^3 (day 1), animals received either pretreatment consisting of p.o. SMAC mimetic Debio 1143 (Debiopharm) at a dose of 100 mg/kg or vehicle as indicated in Table 3a. The dosing was repeated on each day for 7 days (day 1-7). […] Another set of two groups (vehicle- and Debio 1143-pretreated animals) received biweekly i.p. 10 mg/kg of anti-PD-1 antibody (Mouse surrogate antibody, anti-mouse PD-1, Clone: RMP1-14, BioXcell). A final group of Debio 1143-pretreated animals received both anti-PD-1 antibody as well as was continued on daily Debio 1143. Tumor volumes and body weights were assessed trice weekly. Tumor size was measured in two dimensions using a caliper, and the volume was expressed in mm^3 using the formula: V=0.5 a×b^2 where a and b are the long and short diameters of the tumor, respectively.

CN[C@@H](C)C(=O)N[C@H]1CN(C(=O)CC(C)C)CC[C@H]2CC[C@@H](C(=O)NC(c3ccccc3)c3ccccc3)N2C1=O [Debio 1143]
levels of cIAP1 in the tumors (cIAP1): reduced levels of cIAP1 in the tumors of most patients; also recorded: induces the degradation of cIAP1 | number of CD4+ T cells in the tumor microenvironment (CD4+ T-lymphocytes): both increased; also recorded: increases the number | number of CD8+ T cells in the tumor microenvironment (CD8+ T-lymphocytes): increase in CD8+ T cell number being significant; also recorded: increases the number | percentage / number of immune cells expressing PD-1 in tumor (PD-1): increased significantly; also recorded: increases the number | frequency / number of PD-L1-expressing tumor cells (PD-L1): also increased; also recorded: increases the number | percentage / number of immune cells expressing PD-L1 in tumor (PD-L1): increased significantly; also recorded: increases the number | anti-cancer effect (median tumor volume) ([1]; Debio 1143 100 mg/kg p.o. QD day 1-7 pretreatment alone, then control antibody rlgG2b (group 2)): modest anti-cancer effect | anti-cancer effect (median tumor volume) ([1]; Debio 1143 100 mg/kg p.o. QD day 1-7 pretreatment, then anti-PD-L1 10 mg/kg i.p. BIW (group 4)): profound anti-cancer effect; also recorded: sensitizes MC38 tumors to a subsequent treatment with an anti-PD-L1 antibody | anti-cancer effect (median tumor volume) ([1]; Debio 1143 pretreatment day 1-7, then anti-PD-L1 plus continued daily Debio 1143 (group 5), compared with group 4): small additional benefit | anti-cancer effect (median tumor volume) ([2]; Debio 1143 100 mg/kg p.o. QD day 1-7 pretreatment alone, then oral vehicle (group 3)): modest anti-cancer effect | anti-cancer effect (median tumor volume) ([2]; Debio 1143 100 mg/kg p.o. QD day 1-7 pretreatment, then anti-PD-1 10 mg/kg i.p. BIW (group 4)): small additional benefit to Debio 1143 pretreatment alone; also recorded: sensitizes CT26 tumors to a subsequent treatment with an anti-PD-1 antibody | anti-cancer effect (median tumor volume) ([2]; Debio 1143 pretreatment, then anti-PD-1 plus continued daily Debio 1143 (group 5)): significant additional benefit
